Measurements as given in patent US10300060B2, “Trk-inhibiting compound” (ONO PHARMACEUTICAL CO., LTD., priority 2013, dated 2019).

Experiments:
KDR = KDR (Homo sapiens (Human), UniProt P35968); test: Enzyme-inhibiting activity test of kinases other than Trk (selectivity experiment): KDR; assay type: biochemical; conditions: concentration of 3 μM; read-out: Inhibition rate (%) KDR
Procedure: (§1) A test substance (the present compound) was dissolved in dimethylsulfoxide to prepare a 100-fold concentration of the test concentration, 3 μM. The solution was further diluted to 25-fold with an assay buffer (20 mM HEPES, 0.01% Triton X-100, 2 mM DTT, pH 7.5) to obtain a test substance solution. In a similar manner a positive control substance solution was prepared with a positive control substance.
(§2) A 4-times concentration solution (5 μL) of the test substance prepared with the assay buffer, 5 μL of a 4-times concentration solution of substrate/ATP/metal (Mg) and 10 μL of a 2-times concentration solution of kinase were mixed in a well of a polypropylene 384-well plate and allowed to react at room temperature for 1 hour. The reaction was terminated by adding 60 μL of a Termination Buffer (QuickScout Screening Assist MSA; Carna Biosciences). The substrate peptide and the phosphorylated peptide in the reaction solution were separated and quantified. The kinase reaction was assessed from the product ratio (P/(P+S)) calculated from the height (S) of the peak of the substrate peptide and the height (P) of the peak of the phosphorylated peptide. Other kinases used in the kinase selectivity experiments were, for example, b-Raf and KDR. The following Table 3 indicates substrates, substrate concentrations, ATP concentrations and positive control substances used in respective kinase enzyme inhibition activity tests.

[1] = system: sodium monoiodoacetate-induced model rats; test: Analgesic effect on sodium monoiodoacetate-induced model rats; assay type: in vivo, rat; conditions: MIA-induced model rats
b-Raf = b-Raf (Homo sapiens (Human), UniProt P15056); test: Enzyme-inhibiting activity test of kinases other than Trk (selectivity experiment): b-Raf; assay type: biochemical; conditions: concentration of 3 μM; read-out: Inhibition rate (%) b-Raf
Sequence of b-Raf (P15056 whole entry, species assumed): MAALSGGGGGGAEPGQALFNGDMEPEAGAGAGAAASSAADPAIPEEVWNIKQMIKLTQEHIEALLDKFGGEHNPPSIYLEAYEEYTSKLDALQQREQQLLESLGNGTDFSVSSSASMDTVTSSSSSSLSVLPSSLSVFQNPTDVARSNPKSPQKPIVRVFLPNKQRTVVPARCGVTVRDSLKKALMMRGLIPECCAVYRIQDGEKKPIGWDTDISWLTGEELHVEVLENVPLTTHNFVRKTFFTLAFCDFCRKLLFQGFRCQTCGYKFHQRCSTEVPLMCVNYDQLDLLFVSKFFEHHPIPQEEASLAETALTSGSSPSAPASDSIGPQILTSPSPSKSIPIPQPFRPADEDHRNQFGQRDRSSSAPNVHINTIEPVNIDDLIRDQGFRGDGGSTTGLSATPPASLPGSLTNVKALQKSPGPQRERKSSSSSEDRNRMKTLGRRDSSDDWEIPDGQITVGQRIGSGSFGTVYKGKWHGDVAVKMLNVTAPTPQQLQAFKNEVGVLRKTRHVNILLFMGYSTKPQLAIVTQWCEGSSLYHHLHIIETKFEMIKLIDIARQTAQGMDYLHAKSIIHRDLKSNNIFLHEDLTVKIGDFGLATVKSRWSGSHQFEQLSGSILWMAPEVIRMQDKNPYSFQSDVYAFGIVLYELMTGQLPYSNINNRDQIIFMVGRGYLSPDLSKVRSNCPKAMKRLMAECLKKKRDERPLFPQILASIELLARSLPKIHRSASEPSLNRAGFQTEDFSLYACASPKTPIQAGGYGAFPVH
Procedure: as §1, §2

[2] = test substance orally twice a day day 14 to 23, day 24 3 hours before measurement, right hind limb weight load ratio, experiment with morphine as positive control
[3] = test substance orally twice a day day 14 to 23, day 24 3 hours before measurement, right hind limb weight load ratio, experiment with tramadol as positive control

Sequence of KDR (P35968 20-1356, species assumed): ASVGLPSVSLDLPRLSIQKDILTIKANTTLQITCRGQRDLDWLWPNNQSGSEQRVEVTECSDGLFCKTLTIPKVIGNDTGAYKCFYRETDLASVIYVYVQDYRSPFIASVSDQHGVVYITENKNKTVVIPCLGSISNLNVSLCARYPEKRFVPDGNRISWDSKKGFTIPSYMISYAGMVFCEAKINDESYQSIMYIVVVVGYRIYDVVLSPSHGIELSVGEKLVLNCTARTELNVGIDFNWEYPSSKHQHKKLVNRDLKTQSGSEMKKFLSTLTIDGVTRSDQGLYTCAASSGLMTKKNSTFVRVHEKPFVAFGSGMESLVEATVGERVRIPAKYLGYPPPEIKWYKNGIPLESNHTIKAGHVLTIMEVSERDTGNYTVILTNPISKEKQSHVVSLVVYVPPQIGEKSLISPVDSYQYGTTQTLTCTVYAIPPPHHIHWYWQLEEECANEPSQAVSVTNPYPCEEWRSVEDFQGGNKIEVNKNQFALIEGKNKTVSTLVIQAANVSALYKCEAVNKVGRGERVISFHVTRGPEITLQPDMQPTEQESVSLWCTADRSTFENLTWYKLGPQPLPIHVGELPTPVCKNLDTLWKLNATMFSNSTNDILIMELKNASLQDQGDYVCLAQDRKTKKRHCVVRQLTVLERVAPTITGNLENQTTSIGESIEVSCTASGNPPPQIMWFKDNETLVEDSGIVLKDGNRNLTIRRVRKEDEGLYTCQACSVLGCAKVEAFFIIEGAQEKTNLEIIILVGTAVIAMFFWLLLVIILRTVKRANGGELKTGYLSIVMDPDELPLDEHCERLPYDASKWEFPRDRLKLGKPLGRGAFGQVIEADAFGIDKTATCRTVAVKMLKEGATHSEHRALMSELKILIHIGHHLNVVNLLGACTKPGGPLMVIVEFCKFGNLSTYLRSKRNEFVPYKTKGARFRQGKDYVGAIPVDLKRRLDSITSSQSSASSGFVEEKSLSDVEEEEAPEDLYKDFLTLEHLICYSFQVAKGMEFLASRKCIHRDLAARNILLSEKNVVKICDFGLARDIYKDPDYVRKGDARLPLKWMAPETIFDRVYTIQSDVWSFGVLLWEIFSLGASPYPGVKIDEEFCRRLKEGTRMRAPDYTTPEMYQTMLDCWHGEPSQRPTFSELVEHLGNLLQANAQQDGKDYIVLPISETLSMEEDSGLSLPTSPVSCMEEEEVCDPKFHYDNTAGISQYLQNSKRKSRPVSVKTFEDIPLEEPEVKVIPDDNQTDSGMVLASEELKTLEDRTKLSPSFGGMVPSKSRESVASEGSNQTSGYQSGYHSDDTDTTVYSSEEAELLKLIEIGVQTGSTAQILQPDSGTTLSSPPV

SMILES | inhibition at 3 µM (KDR) [%] | Percent improvement (%) [1, 2] [%] | inhibition at 3 µM (b-Raf) [%] | Percent improvement (%) [1, 3] [%] | Percent improvement (%) ([1]; 10 mg/kg subcutaneously 1 hour before measurement on day 24)
CN(C)c1ccn2ncc(-c3ccc(Oc4ncc(NC(=O)Nc5cc(C(F)(F)F)ccc5-c5cccnc5)cn4)cc3)c2n1 [Example 21-37] | 16 | 67 | 50 | – | –
Nc1ncc(Cl)cc1-c1ccc(Oc2ncc(NC(=O)Nc3cc(C(F)(F)F)ccc3-c3ccccc3)cn2)cc1 [Example 15-55, 1-{2-[4-(2-amino-5-chloro-3-pyridinyl)phenoxy]-5-pyrimidinyl}-3-[4-(trifluoromethyl)-2-biphenylyl]urea] | 0 | 62 | 30 | – | –
CS(=O)(=O)c1ccc(C(F)(F)F)cc1NC(=O)Nc1cnc(Oc2ccc(-c3cc(C(F)(F)F)cnc3N)cc2)nc1 [Example 15-98, 1-(2-{4-[2-amino-5-(trifluoromethyl)-3-pyridinyl]phenoxyl}-5-pyrimidinyl)-3-[2-(methylsulfonyl)-5-(trifluoromethyl)phenyl]urea] | 8 | 57 | 23 | – | –
O=C(Nc1cnc(Oc2ccc(-c3cnn4cccnc34)cc2)nc1)Nc1cc(C(F)(F)F)ccc1-c1cccnc1 [Example 21-13, 1-(2-(4-(pyrazolo[1,5-a]pyrimidin-3-yl)phenoxy)pyrimidin-5-yl)-3-(2-(pyridin-3-yl)-5-(trifluoromethyl)phenyl)urea] | – | – | – | 66 | –
CN(C)c1ccn2ncc(-c3ccc(Oc4ncc(NC(=O)Nc5cc(C(F)(F)F)ccc5-c5ccccc5)cn4)cc3)c2n1 [Example 21-70, 1-(2-{4-[5-(dimethylamino)pyrazolo[1,5-a]pyrimidin-3-yl]phenoxyl}-5-pyrimidinyl)-3-[4-(trifluoromethyl)-2-biphenylyl]urea] | 0 | 61 | 19 | – | –
Nc1ncc(Cl)cc1-c1ccc(Oc2ncc(NC(=O)Nc3ccc(C(F)(F)F)cc3C(F)(F)F)cn2)cc1 [Example 15-77, 1-{2-[4-(2-amino-5-chloro-3-pyridinyl)phenoxy]-5-pyrimidinyl}-3-[2,4-bis(trifluoromethyl)phenyl]urea] | 0 | 55 | 32 | – | –
Nc1ncc(F)cc1-c1ccc(Oc2ncc(NC(=O)Nc3cc(C(F)(F)F)ccc3-n3ccnn3)cn2)cc1 [Example 14-5, 1-(2-(1H-1,2,3-triazol-1-yl)-5-(trifluoromethyl)phenyl)-3-(2-(4-(2-amino-5-fluoropyridin-3-yl)phenoxy)pyrimidin-5-yl)urea] | 0 | – | 13 | 47 | –
Nc1ncc(C(F)(F)F)cc1-c1ccc(Oc2ncc(NC(=O)Nc3cc(C(F)(F)F)ccc3-n3cc(Cl)cn3)cn2)cc1 [Example 15-87, 1-(2-{4-[2-amino-5-(trifluoromethyl)-3-pyridinyl]phenoxyl}-5-pyrimidinyl)-3-[2-(4-chloro-1H-pyrazol-1-yl)-5-(trifluoromethyl)phenyl]urea] | 0 | 57 | 34 | – | –
COc1ccn2ncc(-c3ccc(Oc4ncc(NC(=O)Nc5cc(C(F)(F)F)ccc5-c5cccnc5)cn4)cc3)c2n1 [Example 21-9, 1-(2-(4-(5-methoxypyrazolo[1,5-a]pyrimidin-3-yl)phenoxy)pyrimidin-5-yl)-3-(2-(pyridin-3-yl)-5-(trifluoromethyl)phenyl)urea] | – | – | – | 64 | –
Nc1ncc(Cl)cc1-c1ccc(Oc2ncc(NC(=O)Nc3ccc(C(F)(F)F)cc3Cl)cn2)cc1 [Example 15-6, 1-(2-(4-(2-amino-5-chloropyridin-3-yl)phenoxy)pyrimidin-5-yl)-3-(2-chloro-4-(trifluoromethyl)phenyl)urea] | 0 | – | 37 | 51 | –
COc1cccc(C2(O)CCCCC2CN(C)C)c1 (stereo not drawn) [Tramadol, tramadol, reference compound] | – | – | – | – | 43
Cc1cccc(-c2ccc(C(F)(F)F)cc2NC(=O)Nc2cnc(Oc3ccc(-c4cnn5ccc(N(C)C)nc45)cc3)nc2)c1 [Example 21-73, 1-(2-{4-[5-(dimethylamino)pyrazolo[1,5-a]pyrimidin-3-yl]phenoxyl}-5-pyrimidinyl)-3-[3′-methyl-4-(trifluoromethyl)-2-biphenylyl]urea] | 0 | 62 | 21 | – | –
Nc1ncc(C(F)(F)F)cc1-c1ccc(Oc2ncc(NC(=O)Nc3cc(C(F)(F)F)ccc3-n3ccc(C(F)(F)F)n3)cn2)cc1 [Example 15-52, 1-(2-{4-[2-amino-5-(trifluoromethyl)-3-pyridinyl]phenoxyl}-5-pyrimidinyl)-3-{5-(trifluoromethyl)-2-[3-(trifluoromethyl)-1H-pyrazol-1-yl]phenyl}urea] | 0 | 60 | 20 | – | –
Nc1ncc(Cl)cc1-c1ccc(Oc2ncc(NC(=O)Nc3cc(C(F)(F)F)ccc3-n3cc(Cl)cn3)cn2)cc1 [Example 15-63, 1-{2-[4-(2-amino-5-chloro-3-pyridinyl)phenoxy]-5-pyrimidinyl}-3-[2-(4-chloro-1H-pyrazol-1-yl)-5-(trifluoromethyl)phenyl]urea] | 0 | 53 | 43 | – | –
Nc1ncc(F)cc1-c1ccc(Oc2ncc(NC(=O)Nc3cc(C(F)(F)F)ccc3-c3cccnc3)cn2)cc1 [Example 14-6, 1-(2-(4-(2-amino-5-fluoropyridin-3-yl)phenoxy)pyrimidin-5-yl)-3-(2-(pyridin-3-yl)-5-(trifluoromethyl)phenyl)urea] | 1.7 | 53 | 45 | – | –
CN(C)c1ccn2ncc(-c3ccc(Oc4ncc(NC(=O)Nc5cc(C(F)(F)F)ccc5-c5ccnn5C)cn4)cc3)c2n1 [Example 21-51, 1-(2-{4-[5-(dimethylamino)pyrazolo[1,5-a]pyrimidin-3-yl]phenoxyl}-5-pyrimidinyl)-3-[2-(1-methyl-1H-pyrazol-5-yl)-5-(trifluoromethyl)phenyl]urea] | 9 | 68 | 49 | – | –
Cc1cn(-c2ccc(C(F)(F)F)cc2NC(=O)Nc2cnc(Oc3ccc(-c4cc(Cl)cnc4N)cc3)nc2)nn1 [Example 8-1, 1-(2-(4-(2-amino-5-chloropyridin-3-yl)phenoxy)pyrimidin-5-yl)-3-(2-(4-methyl-1H-1,2,3-triazol-1-yl)-5-(trifluoromethyl)phenyl)urea] | 0 | – | 6.5 | 60 | –
Nc1ncc(F)cc1-c1ccc(Oc2ncc(NC(=O)Nc3cc(C(F)(F)F)ccc3-c3ccccc3)cn2)cc1 [Example 15-58, 1-{2-[4-(2-amino-5-fluoro-3-pyridinyl)phenoxy]-5-pyrimidinyl}-3-[4-(trifluoromethyl)-2-biphenylyl]urea] | 0 | – | 30 | – | –
Nc1ncc(Cl)cc1-c1ccc(Oc2ncc(NC(=O)Nc3cc(C(F)(F)F)ccc3-n3cccn3)cn2)cc1 [Example 7, 1-(2-(1H-pyrazol-1-yl)-5-(trifluoromethyl)phenyl)-3-(2-(4-(2-amino-5-chloropyridin-3-yl)phenoxy)pyrimidin-5-yl)urea] | 0 | – | 40 | 61 | –
CS(=O)(=O)c1ccc(C(F)(F)F)cc1NC(=O)Nc1cnc(Oc2ccc(-c3cc(F)cnc3N)cc2)nc1 [Example 15-96, 1-{2-[4-(2-amino-5-fluoro-3-pyridinyl)phenoxy]-5-pyrimidinyl}-3-[2-(methylsulfonyl)-5-(trifluoromethyl)phenyl]urea] | 2 | – | 22 | – | –
CS(=O)(=O)c1ccc(C(F)(F)F)cc1NC(=O)Nc1cnc(Oc2ccc(-c3cc(Cl)cnc3N)cc2)nc1 [Example 15-104, 1-{2-[4-(2-amino-5-chloro-3-pyridinyl)phenoxy]-5-pyrimidinyl}-3-[2-(methylsulfonyl)-5-(trifluoromethyl)phenyl]urea] | 18 | 54 | 53 | – | –
Nc1ncc(Cl)cc1-c1ccc(Oc2ncc(NC(=O)Nc3cc(C(F)(F)F)ccc3-n3ccc(C(F)(F)F)n3)cn2)cc1 [Example 8-2, 1-(2-(4-(2-amino-5-chloropyridin-3-yl)phenoxy)pyrimidin-5-yl)-3-(5-(trifluoromethyl)-2-(3-(trifluoromethyl)-1H-pyrazol-1-yl)phenyl)urea] | 0 | – | 21 | – | –
